# Laboratory results from patent US20240091242A1, “LIPIDS THAT REDUCE LUNG DAMAGE, IMPROVE PULMONARY FUNCTION AND DECREASE PRO-INFLAMMATORY CYTOKINES” (Signpath Pharma, Inc., priority 2021, published 2024).
# Entries after “also recorded” stand apart in the source; their conditions may differ.
# Columns and labels:
# murine LPS ARDS model [1] = test: Histopathological evaluation (lung injury score), murine LPS ARDS model; assay type: in vivo, mouse
# Description: (§1) In the ARDS group, mice received Escherichia coli O111:B4 lipopolysaccharide (50 μg in 0.05 mL saline, i.t.), while, in the control group, the animals received an instillation of saline (0.05 mL, i.t.). For intratracheal instillation, mice were slightly anesthetized with isoflurane.
# (§2) The lipid SPPCT-800 was dissolved in water (low dose—2 mg/ml; high dose—20 mg/ml). For the 24-hour study, two treatment approaches were used. Mice received a single dose of SPPCT-800 (200 mg/kg, per gavage) as prevention (30 minutes before the LPS instillation), or as a single dose of either 20 mg/kg or 200 mg/kg as therapy (3-hour after the LPS instillation). For the 72-hour study, mice received a total of 8 treatments of SPPCT-800 (200 mg/kg) starting at 3-hour after the LPS instillation. Disease progression in mice was assessed by the evaluation of pulmonary functions, blood oxygen saturation, and body weight change. On the terminal day of each study (24 hours or 72 hours), measurement of cytokine levels in the plasma and BALF, and histopathology evaluations were done.
# Histopathological Evaluation. […] A blinded histologist evaluated the general morphology of alveolar septa, lung structure, and inflammation according to the general scoring described and adopted by Matute-Bello, et al.^25, 26
# (§3) Statistical Analysis. Results are expressed as means±SEM. […]
# murine LPS ARDS model [2] = test: Arterial blood oxygen saturation (SpO2), murine LPS ARDS model; assay type: in vivo, mouse; details: 72-hour study; compared to untreated LPS group; did not reach statistical significance
# Description: as §1
# as §2, with “On the terminal day of each study (24 hours or 72 hours), measurement of cytokine levels in the plasma and BALF, and histopathology evaluations were done.” left out
# At 0 hour (baseline), 24-hour post-LPS instillation, and 48 and 72-hour post LPS instillation, arterial blood oxygen saturation (SpO2) was recorded on conscious mice. SpO2 was read off of a pulse oximeter (STARR Life Sciences MouseOx Plus system, Oakmont, PA) with a mouse collar probe installed at the carotid level. The saturation values were measured in percentages (%).
# as §3
# [3] = Toxicity (non-toxic dose); details: in vivo
# murine LPS ARDS model [4] = test: Overall efficacy in the murine LPS ARDS model; assay type: in vivo, mouse
# Description: To investigate the role of the lipids of the present invention, such as SPPCT-800, as a treatment for ARDS, the inventors used a murine LPS model to measure histologic changes, lung and body weights, oxygen blood saturations and other pulmonary function parameters, BALF protein and cell counts, and pro-inflammatory cytokine levels in the plasma and BALF.
# as §1
# as §2, with “On the terminal day of each study (24 hours or 72 hours), measurement of cytokine levels in the plasma and BALF, and histopathology evaluations were done.” left out
# [5] = Detectable activity after a single dose; assay type: in vivo
# murine LPS ARDS model [6] = test: Body weight and lung weight, murine LPS ARDS model; assay type: in vivo, mouse; details: for body weight loss: 72-hour study
# Description: C57B16/N mice were obtained from Charles River Laboratories (Montreal, Quebec). Male mice, 20-25 g of body weight, were used throughout the studies. Animals were housed in specific pathogen[…]free conditions, and all experiments were approved by Institutional Animal Care and Use Committee (IPST_SL20200402-1). Animal studies are reported in compliance with […] guidelines.
# as §1, §2
# Statistical Analysis. Results are expressed as means±SEM. Comparisons were made on normally distributed data using ANOVA, followed by a Fisher post hoc test to assess the difference between LPS+vehicle group with GraphPad Prism Software version 8.0 (San Diego, CA, USA). Differences were considered statistically significant when P values were less than 0.05. (* Shown difference versus Sham animals and # shown difference versus LPS+Vehicle group. * Means P<0.05, ** P<0.01, *** P<0.001 while # means P<0.05, ##P<0.01 and ###P<0.001).
smiles,measurement,setting,value
CCCCCCCCCCCCCC(=O)OCC(COP(=O)([O-])OCC(COC(=O)CCC)OC(=O)CCC)OC(=O)CCCCCCCCCCCCC.CCCCCCCCCCCCCC(=O)OCC(COP(=O)([O-])OCC(COC(=O)CCC)OC(=O)CCC)OC(=O)CCCCCCCCCCCCC.[Mg+2] (centres unmarked) [SPPCT-800],lung injury score,"murine LPS ARDS model [1]; at 24 hours, given 30 minutes prior to LPS as a preventative, P<0.01",0.3
same,lung injury score,"murine LPS ARDS model [1]; at 72 hours, multi-dose treatment group",2.2
same,SpO2 levels,murine LPS ARDS model [2],maintained
same,non-toxic dose,[3],up to 800 mg/kg per day
same,efficacy against ARDS,"murine LPS ARDS model [4]; all three studies, best results in the 72-hour study",effective
same,severe damage to the lung,"murine LPS ARDS model [4]; single dose of 200 mg/kg, given 30 minutes before LPS challenge",significantly reduces
same,single dose with detectable activity,[5],1 mg/kg
same,body weight loss versus LPS (in words),murine LPS ARDS model [6]; 48 hours and 72 hours after LPS treatment,significantly reduced
same,wet lung weight/dry lung ratio,murine LPS ARDS model [6]; 72 hours,decreased
same,lung index (lung weight/body weight×100),"murine LPS ARDS model [6]; 72 hours, P<0.05",reduced; also recorded: significantly decreased
same,lung weight,"murine LPS ARDS model [6]; animals sacrificed at 72 hours, P=0.1100",tended to reduce
same,body weight loss,murine LPS ARDS model [6]; at 24 hours after LPS,14%
same,body weight loss,"murine LPS ARDS model [6]; at 48 hours after LPS, P<0.05 vs untreated LPS group",14%
same,body weight loss,"murine LPS ARDS model [6]; at 72 hours after LPS, P<0.05 vs untreated LPS group",8%
